Among the data in PubChem BioAssay (NCI) are TGI values, retold here.

The structures appear in SMILES notation.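 Where inhibition never reached the appropriate level, the endpoint shown equals the highest concentration tested. Otherwise, values were interpolated linearly from a five-concentration, 48-hour dose response in 96-well plates. TGI is the concentration that stops growth completely.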

Some test systems named below: HOP-62 NSCLC; CAKI-1 renal; MDA-MB-231 breast; PC-3 prostate; HOP-92 NSCLC; MDA-N; NCI-H23 lung; MCF7 breast; ACHN renal; EKVX NSCLC; HCT-15 colon; OVCAR-5 ovarian; NCI-H522 lung; MALME-3M melanoma; T-47D breast; NCI-H460 lung; SF-268 CNS; NCI-H226 lung.
What all share (assay): inhibition of tumour cell growth, NCI panel, 48 h

For the compound `O=C(NCCCCCCCCNC(=O)Nc1cccc2ccccc12)Nc1cccc2ccccc12`, the TGI is 50.6 µM in the assay with HOP-62 NSCLC; more than 100 µM in the assay with CAKI-1 renal; 23.3 µM in the assay with MDA-MB-231 breast; more than 100 µM in the assay on PC-3 prostate; 36 µM in the assay on HOP-92 NSCLC; more than 100 µM in the assay with MDA-N. Besides, the TGI with NCI-H23 lung, in the assay on MCF7 breast, with ACHN renal, in the assay with EKVX NSCLC, in the assay on HCT-15 colon and in the assay on OVCAR-5 ovarian was more than 100 µM in each case. Moreover, the TGI in the assay with NCI-H522 lung was 87 µM; in the assay with MALME-3M melanoma, more than 100 µM; in the assay with T-47D breast, more than 100 µM; with NCI-H460 lung it was 13.4 µM; with SF-268 CNS it was 45.8 µM.
`O=C(C[C@@H]1CCCN2CCCC[C@H]12)N1c2ccccc2Sc2ccc(Cl)cc21`: the TGI with HOP-62 NSCLC was found to be 26 µM; in the assay on CAKI-1 renal it was 27.6 µM; in the assay with MDA-MB-231 breast it was 28.4 µM; with PC-3 prostate it was 27.2 µM; in the assay on MDA-N it was 30.9 µM; in the assay on NCI-H226 lung, 46 µM. The TGI came out at 29.1 µM in the assay on NCI-H23 lung; 35.5 µM in the assay with MCF7 breast; 27.2 µM with ACHN renal; 33.8 µM with EKVX NSCLC; 30.4 µM in the assay on HCT-15 colon; 26.4 µM in the assay with OVCAR-5 ovarian. The TGI in the assay with NCI-H522 lung is 26.9 µM; with MALME-3M melanoma, 31.2 µM; in the assay on T-47D breast, 39.5 µM; in the assay on NCI-H460 lung it was 28.3 µM; in the assay on SF-268 CNS, 42.8 µM.
For the compound `COC(=O)C1(Cc2ccccc2)Cc2ccccc2C1O` (configuration not stated), the TGI in the assay on HOP-62 NSCLC, with CAKI-1 renal, with MDA-MB-231 breast, in the assay on PC-3 prostate, with MDA-N and in the assay with NCI-H226 lung was more than 100 µM throughout. Besides, the TGI with NCI-H23 lung, with MCF7 breast, in the assay with ACHN renal, in the assay with EKVX NSCLC, in the assay with HCT-15 colon and with OVCAR-5 ovarian was more than 100 µM each time. Also, the TGI in the assay on NCI-H522 lung, in the assay with MALME-3M melanoma, in the assay on T-47D breast, with NCI-H460 lung and in the assay on SF-268 CNS was more than 100 µM each time.
Turning to `Brc1ccc(-c2[nH]c3ccccc3c2/C=N\Nc2ccc(-c3nc4ccccc4[nH]3)cc2)cc1`, the TGI in the assay on HOP-62 NSCLC is more than 68.5 µM; in the assay on CAKI-1 renal, more than 100 µM; in the assay on MDA-MB-231 breast, 0.559 µM; in the assay on PC-3 prostate, more than 100 µM; with MDA-N, less than 0.01 µM; with NCI-H23 lung, more than 46.6 µM. In addition, the TGI in the assay on MCF7 breast is more than 100 µM; in the assay on ACHN renal it was 17.3 µM; with EKVX NSCLC it was more than 52.2 µM; in the assay on HCT-15 colon, more than 37 µM; in the assay on OVCAR-5 ovarian it was more than 67.1 µM; in the assay with NCI-H522 lung it was less than 0.01 µM. For the same compound, the TGI in the assay with MALME-3M melanoma is 24 µM; in the assay with T-47D breast, more than 100 µM; in the assay with NCI-H460 lung, more than 51.6 µM; with SF-268 CNS, 6.28 µM.
With `Fc1cc2nc3n(c2cc1F)C(c1c(F)cccc1F)SC3` (configuration not stated), the TGI with HOP-62 NSCLC, with CAKI-1 renal, in the assay with MDA-MB-231 breast, in the assay with PC-3 prostate, with HOP-92 NSCLC and in the assay on MDA-N was more than 100 µM throughout. Moreover, the TGI in the assay on NCI-H226 lung, with NCI-H23 lung, with MCF7 breast, with ACHN renal, with HCT-15 colon and in the assay with OVCAR-5 ovarian was more than 100 µM in each case. Moreover, the TGI with NCI-H522 lung, in the assay on MALME-3M melanoma, in the assay with T-47D breast, with NCI-H460 lung and with SF-268 CNS was more than 100 µM each time.
`Nc1ccc(Oc2ccc(C34CC5CC(C3)CC(c3ccc(Oc6ccc(N)cc6C(F)(F)F)cc3)(C5)C4)cc2)c(C(F)(F)F)c1`: the TGI in the assay with HOP-62 NSCLC was 44.9 µM; in the assay with CAKI-1 renal, more than 100 µM; in the assay on MDA-MB-231 breast it was 31.5 µM; with PC-3 prostate, 29.2 µM; in the assay with MDA-N, more than 100 µM; in the assay with NCI-H226 lung, 35.7 µM. For the same compound, the TGI with NCI-H23 lung is 45.6 µM; with MCF7 breast it was 33.8 µM; in the assay on ACHN renal, more than 100 µM; with EKVX NSCLC, 30.9 µM; with HCT-15 colon, more than 100 µM; in the assay with OVCAR-5 ovarian, 70.3 µM. The TGI with NCI-H522 lung came to 30.3 µM; in the assay with MALME-3M melanoma, 58.5 µM; in the assay with T-47D breast, 64.5 µM; in the assay with NCI-H460 lung it was 37.9 µM; with SF-268 CNS it was 43.9 µM.
`CCOC(=O)C(=[N+]=[N-])C(=O)CSC#N`: the TGI with HOP-62 NSCLC, in the assay on CAKI-1 renal, with MDA-MB-231 breast, in the assay on PC-3 prostate, in the assay with MDA-N and with NCI-H226 lung was more than 100 µM throughout. In addition, the TGI was more than 100 µM in the assay with NCI-H23 lung; more than 100 µM with MCF7 breast; 55.3 µM in the assay on ACHN renal; more than 100 µM in the assay with EKVX NSCLC; more than 100 µM in the assay with HCT-15 colon; more than 100 µM in the assay on OVCAR-5 ovarian. For the same compound, the TGI in the assay with NCI-H522 lung was 79.4 µM; in the assay on MALME-3M melanoma, more than 100 µM; in the assay with T-47D breast, more than 100 µM; with SF-268 CNS, more than 100 µM.
